Key:
[1] = siRNA/mRNA encapsulation rate by Ribogreen reagent (section IV); assay type: physicochemical; conditions: for % siRNA encapsulation: F7siRNA-loaded LNP, 50:10:38.5:1.5, N/P ratio 6; for % mRNA encapsulation: FlucmRNA-loaded LNP, 50:10:38.5:1.5
Description: The encapsulation rates of siRNA and mRNA of lipid nanoparticles were measured with Ribogreen reagent. A solution diluted with TE buffer solution was arranged so that lipid nanoparticle concentration as nucleic acid concentration to be 8 μg/mL, as a solution for measuring nanoparticle surface nucleic acid concentration. In addition, a solution for measuring total nucleic acid concentration was arranged so that lipid nanoparticle concentration as nucleic acid concentration to be 1.2 μg/mL, which is 1% (w/w) concentration of X-triton100, by adding X-triton100. For 100 μL of each solution, 100 μL of Ribogreen (registered trademark) reagent (Quant-iT™ RiboGreen™ RNA Reagent, manufactured by Thermofisher Scientific) was mixed well in the wells of 96-well microplate (black, made of polystyrene, flat bottom, manufactured by Corning), and the fluorescence intensity at an excitation wavelength of 485 nm and a measurement wavelength of 528 nm was measured with a microplate reader. Nucleic acid concentration was calculated by calibration curve created by measuring the fluorescence intensity of nucleic acid solution containing 1% X-triton100 (nucleic acid concentration: 0-2.5 μg/mL) as same as aforementioned. Nucleic acid encapsulation rate of each lipid nanoparticle was calculated by the following formula: Encapsulation rate %=(nucleic acid concentration in solution for measuring total nucleic acid concentration (μg/mL)−nucleic acid concentration in solution for measuring nanoparticle surface nucleic acid concentration (μg/mL))/nucleic acid concentration in solution for measuring total nucleic acid concentration (μg/mL)×100. <Results>
The encapsulation rate of mRNA of lipid nanoparticles was measured using Ribogreen (manufactured by life technologies).

[2] = Storage stability of FlucmRNA-loaded LNP at −80, 5, 25 and 40° C.; assay type: physicochemical; conditions: for period for which quality remained good, −80° C.: maximum storage period 1 week; for period for which quality remained good, 5° C. / period for which quality remained good, 25° C. / period for which quality remained good, 40° C. (weeks) / period for which quality remained good, 40° C. (days): maximum storage period 5 weeks; for quality at production (storage stability criteria): criteria: PDI 0.2 or less, encapsulation 80% or more
Description: Lipid nanoparticles were allowed to stand at each temperature of −80° C., 5° C., 25° C., and 40° C., and after keeping for each period of time, average particle size, PDI, and nucleic acid encapsulation rate were measured. Lipid nanoparticles which satisfy following all three conditions were defined that the quality was remained well: the average particle size is maintained within +/−20 nm based on the date of LNP preparation; PDI remains high uniformity with a value of 0.2 or less; and the nucleic acid encapsulation rate is also maintained at 80% or more. As a result of measuring average particle size, PDI, and nucleic acid encapsulation rate after each FlucmRNA-loaded lipid nanoparticle was allowed to stand at −80° C., 5° C., 25° C., and 40° C. respectively and kept for each period of time, periods of time defined as the quality of the lipid nanoparticles was remained well are shown in Tables 13 and 14. The lipid nanoparticles which remain in good quality with standing at 5° C. for one week or more can be evaluated as having excellent stability.

F7 = test: In vivo F7 knockdown, plasma F7 enzyme activity (BIOPHEN FVII), Balb/c mice; conditions: for knockdown activity, compared with MC3: F7siRNA-loaded LNP, versus LNP comprising MC3; for F7 enzyme activity (Ratio using MC3 as 1) / F7 enzyme activity (%): i.v. 0.025 mg siRNA/kg, plasma at 24 hours; for F7 enzyme activity (Ratio using MC3 as 1): relative plasma F7 activity of MC3 LNP as 1; for F7 enzyme activity (%): untreated mice as 100%
Description: Then, each prepared F7siRNA-loaded lipid nanoparticles were administered to Balb/c mice (Charles River Laboratories Japan, Inc., 5 weeks old, female) and in vivo F7 knockdown activity was examined. Specifically, BALB/c mice were intravenously administered F7siRNA-loaded lipid nanoparticles comprising the lipids described in Table 9 at 0.025 mg siRNA/kg and F7siRNA-loaded lipid nanoparticles comprising the lipids described in Tables 10 and 11 at 0.025 mg siRNA/kg, and the plasma F7 enzyme activity at 24 hours later was measured using BIOPHEN FVII (Biophen, A221304). Relative plasma F7 enzyme activity (%) of mice administered each F7siRNA-loaded lipid nanoparticles was calculated using plasma F7 enzyme activity of untreated mice as 100%. Furthermore, the ratio was calculated using the relative plasma F7 enzyme activity (%) of mice administered MC3-comprising F7siRNA-loaded lipid nanoparticles as 1. The results of measurement of CL4F6 derivative nanoparticles are shown in Tables 9 and 10, and results of measurement of CL15F6 derivative nanoparticles in Table 11.

liver = test: In vivo Fluc activity of FlucmRNA-loaded LNP by in vivo imaging, liver; conditions: Balb/c mice, 6 hours; for Fluc activity in the liver, compared with CL15F6: 0.1 mg mRNA/kg, versus LNP comprising CL15F6 (Table 7); for Fluc Activity in liver: FlucmRNA-loaded LNP i.v. 0.1 mg mRNA/kg
Description: (§1) Then, each prepared FlucmRNA-loaded lipid nanoparticles were administered to Balb/c mice (Charles River Laboratories Japan, Inc., 7 weeks old, female) and in vivo gene expression activity was examined. Specifically, each FlucmRNA-loaded lipid nanoparticles were intravenously administered to Balb/c mice at 0.1 mg mRNA/kg, and Fluc activities in the liver and spleen at 6 hours later were measured. Fluc activity was measured by in vivo imaging system (Perkin Elmer, IVIS200) after administration of VivoGlo Luciferin, In Vivo Grade (Promega, P1041) dissolved with PBS to 15 mg/mL, via tail vein at a dose of 1.5 mg per mouse. The unit of Fluc activity is the emission intensity per unit area (Avg Radiance [p/s/cm2/sr]) at the maximum emission wavelength of about 560 nm. The results of measurement of the Fluc activity (Avg Radiance [p/s/cm2/sr]) in the liver and spleen of mice administered each FlucmRNA-loaded lipid nanoparticles are shown in Tables 5-7.

[3] = Average particle size (ζ-Average) and PDI by dynamic light scattering (Zetasizer Nano ZSP); assay type: physicochemical
Description: The average particle size (ζ-Average) and PDI in PBS(−) of lipid nanoparticles were measured using “Zetasizer Nano ZSP”, an analyzer utilizing dynamic light scattering (manufactured by Malvern).
Measurement of average particle size and PDI of the lipid nanoparticles were carried out with the same method as the measurement of average particle size of mRNA-LNP.
The average particle size (ζ-Average) and PDI in PBS (−) of lipid nanoparticles were measured using “Zetasizer Nano ZSP”, an analyzer utilizing dynamic light scattering (manufactured by Malvern).

spleen = test: In vivo Fluc activity of FlucmRNA-loaded LNP by in vivo imaging, spleen; conditions: Balb/c mice, 6 hours; for Fluc Activity in spleen: FlucmRNA-loaded LNP i.v. 0.1 mg mRNA/kg; for Fluc activity in the spleen, compared with CL4F6: versus LNP comprising CL4F6 (Tables 5 and 6)
Description: as §1

[4] = F7siRNA-loaded LNP, 50:10:38.5:1.5, N/P ratio 6
[5] = FlucmRNA-loaded LNP, 50:10:38.5:1.5
[6] = FlucmRNA-loaded LNP, lipid:DSPC:cholesterol:DMG-PEG2K 50:10:38.5:1.5

| SMILES | % siRNA encapsulation [1] [%] | % mRNA encapsulation [1] [%] | period for which quality remained good, −80° C. [2] [week] | period for which quality remained good, 5° C. [2] | period for which quality remained good, 25° C. [2] | period for which quality remained good, 40° C. (weeks) [2] [weeks] | knockdown activity, compared with MC3 (F7) | F7 enzyme activity (Ratio using MC3 as 1) (F7) | Fluc activity in the liver, compared with CL15F6 (liver) | Fluc Activity in liver (liver) | PDI [3, 4] | ζ-Average (nm) [3, 4] [nm] | PDI [3, 5] | ζ-Average (nm) [3, 6] [nm] | Fluc activity in the spleen, compared with CL15F6 (spleen; 0.1 mg mRNA/kg, versus LNP comprising CL15F6 (Table 7)) | Fluc Activity in spleen (spleen) | period for which quality remained good, 40° C. (days) [2] [day days] | F7 enzyme activity (%) (F7) | Fluc activity in the spleen, compared with CL4F6 (spleen; 0.1 mg mRNA/kg) | quality at production (storage stability criteria) [2] |
| --- | --- | --- | --- | --- | --- | --- | --- | --- | --- | --- | --- | --- | --- | --- | --- | --- | --- | --- | --- | --- |
| CCCCCCCCCC(CCCCCCCCC)C(=O)OCCCCCCC(O)(CCCCCCOC(=O)C(CCCCCCCCC)CCCCCCCCC)CCCCOC(=O)C1CCN(C)CC1 [CL15F 11-9] | 101.1 | 99.78 | 1 | 5 weeks | 5 weeks | 5 | higher knockdown activity | 0.50 | higher Fluc activity | 3.66E+07 Avg Radiance [p/s/cm2/sr] | 0.029 | 104.9 | 0.023 | 99.31 | higher Fluc activity | 7.55E+06 Avg Radiance [p/s/cm2/sr] |  |  |  |  |
| CCCCCCCC(CCCCCCC)C(=O)OCCCCCCC(O)(CCCCCCOC(=O)C(CCCCCCC)CCCCCCC)CCCCOC(=O)C1CCN(C)CC1 [CL15F 9-7] | 100.3 | 99.5 | 1 | 5 weeks | 5 weeks | 5 | higher knockdown activity | 0.60 | higher Fluc activity | 6.76E+06 Avg Radiance [p/s/cm2/sr] | 0.023 | 103.1 | 0.010 | 107.60 |  | 4.23E+06 Avg Radiance [p/s/cm2/sr] |  |  |  |  |
| CCCCCCCCCCC(CCCCCCCCCC)C(=O)OCCCCCCC(O)(CCCCCCOC(=O)C(CCCCCCCCCC)CCCCCCCCCC)CCCCOC(=O)C1CCN(C)CC1 [CL15F 12-10] | 100.5 | 99.78 | 1 | 5 weeks | 5 weeks | 5 | higher knockdown activity | 0.51 | higher Fluc activity | 4.33E+07 Avg Radiance [p/s/cm2/sr] | 0.014 | 100.2 | 0.030 | 97.59 |  | 5.58E+06 Avg Radiance [p/s/cm2/sr] |  |  |  |  |
| CCCCCCCCCCCCC(CC)C(=O)OCCCCCCC(O)(CCCCCCOC(=O)C(CC)CCCCCCCCCCCC)CCCCN(CCC)CCC (centres unmarked) [CL4F 14-2] | 98.0 | 94.0 | 0 | 0 week weeks | 0 week weeks |  |  |  |  | 4.08E+07 Avg Radiance [p/s/cm2/sr] | 0.076 | 80.87 | 0.078 | 74.02 |  | 3.66E+06 Avg Radiance [p/s/cm2/sr] | 0 | 7.9 | higher Fluc activity |  |
| CCCCCCCCCCCCCCCC(=O)OCCCCCCC(O)(CCCCCCOC(=O)CCCCCCCCCCCCCCC)CCCCOC(=O)C1CCN(C)CC1 [CL15F 16-0] | 101.0 | 100.1 |  |  |  |  |  | 1.48 |  | 1.97E+05 Avg Radiance [p/s/cm2/sr] | 0.238 | 109.6 | 0.234 | 195.90 |  | 4.59E+05 Avg Radiance [p/s/cm2/sr] |  |  |  | Does not meet the criteria for “good” at production |
| CCCCC(CC)C(=O)OCCCCCCC(O)(CCCCCCOC(=O)C(CC)CCCC)CCCCN(CCC)CCC (centres unmarked) [CL4F 6-2] | 56.9 | 41.4 |  |  |  |  |  |  |  | 1.34E+03 Avg Radiance [p/s/cm2/sr] | 0.298 | 274.50 | 0.069 | 218.20 |  | 1.24E+05 Avg Radiance [p/s/cm2/sr] |  | 54.8 |  | Does not meet the criteria for “good” at production |
| CCCCCCCCCC(CCCCCCC)C(=O)OCCCCCCC(O)(CCCCCCOC(=O)C(CCCCCCC)CCCCCCCCC)CCCCN(CCC)CCC (centres unmarked) [CL4F 11-7] | 99.8 | 99.7 | 1 | 5 weeks | 5 weeks | 5 |  |  |  | 1.23E+08 Avg Radiance [p/s/cm2/sr] | 0.019 | 94.76 | 0.021 | 79.45 |  | 2.03E+06 Avg Radiance [p/s/cm2/sr] |  | 14.1 |  |  |
| CCCCCCCC(CCC)C(=O)OCCCCCCC(O)(CCCCCCOC(=O)C(CCC)CCCCCCC)CCCCN(CCC)CCC (centres unmarked) [CL4F 9-3] | 99.9 | 99.6 | 1 | 5 weeks | 5 weeks |  |  |  |  | 2.96E+07 Avg Radiance [p/s/cm2/sr] | 0.022 | 114.40 | 0.030 | 102.80 |  | 8.17E+06 Avg Radiance [p/s/cm2/sr] | 0 | 11.7 | higher Fluc activity |  |

Reference: patent US12458605B2, “Lipid nanoparticle” (National University Corporation Hokkaido University, priority 2020, dated 2025)
